Tests used:
XBP1 = test: Cellular XBP1 splicing assay (NanoLuc luciferase reporter); type: cell-based; settings: Homo sapiens; ARPE-19 cells stably expressing XBP1-nano-luciferase; thapsigargin 150 nM, 4 hour incubation
Experimental: ARPE-19 cells stably expressing XBP1 (a.a. 1-376) with nano-luciferase gene sequence linked so it is in frame when XBP1 is spliced, were cultured in F12 media, 10 % FBS, 0.044% sodium bicarbonate, 150 µg/ml hygromycin B and seeded for assays at 5,000 cells in 384 well plates in culture media without hygromycin B and incubated at 37° C./5% CO2. After overnight incubation test compounds were added to the cell plate in a 10-point ½ log dilution series in duplicate (final DMSO concentration 0.117 %). After further incubation of 30 minutes thapsigargin was added (final concentration 150 nM) and then another 4 hour incubation. A NanoLuc luciferase assay (Promega) was used according to the manufacturer’s instructions to detect the luciferase and luminescence measured on a luminometer (EnVision, PerkinElmer). IC50 values calculated by fitting a sigmoidal curve to percent inhibition of control of compound concentration.

IRE1α kinase = IRE1α kinase (Homo sapiens (Human), UniProt O75460); test: Inhibition of kinase activity of IRE1α (ADP-Glo); type: biochemical; settings: 5 nM IRE1α kinase, 100 µM ATP, 4 hours at room temperature
Sequence of IRE1α kinase (O75460 468-977): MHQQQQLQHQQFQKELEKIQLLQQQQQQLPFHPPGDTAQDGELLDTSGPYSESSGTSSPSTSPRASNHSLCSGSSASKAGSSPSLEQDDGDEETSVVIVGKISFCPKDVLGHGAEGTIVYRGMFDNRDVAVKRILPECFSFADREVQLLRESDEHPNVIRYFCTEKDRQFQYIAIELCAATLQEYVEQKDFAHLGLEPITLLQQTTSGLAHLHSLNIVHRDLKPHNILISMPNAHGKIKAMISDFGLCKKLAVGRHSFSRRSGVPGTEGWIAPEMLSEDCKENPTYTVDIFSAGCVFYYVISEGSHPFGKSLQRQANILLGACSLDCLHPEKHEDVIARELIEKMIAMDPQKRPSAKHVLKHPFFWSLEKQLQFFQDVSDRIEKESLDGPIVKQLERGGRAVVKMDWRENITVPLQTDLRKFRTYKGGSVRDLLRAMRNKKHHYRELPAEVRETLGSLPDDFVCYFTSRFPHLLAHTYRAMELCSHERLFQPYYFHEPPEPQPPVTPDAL
Experimental: The kinase reactions were performed in 384 well white ProxiPlate-384 Plus plates (PERKIN Elmer 6008280) using 25 mM MOPS assay buffer with 1 mM dithiothreitol, 25 mM MgCl2, 12.5 mM β-glycerophosphate, 5 mM EGTA, and 50 µg/mL BSA. Test compounds were prepared on the day of assay and dispensed using D300 digital dispenser as a 10-point ½ log dilution series in duplicate, normalized to a final DMSO concentration of 3%. Test compounds were pre-incubated for 30 min at room temperature with 10 nM IRE1α kinase (E31-11G from Signal Chem) in 2.5 µL of assay buffer and the reaction started by addition of 2.5 µL of ATP in assay buffer, to give a final ATP concentration of 100 µm and 5 nM IRE1α kinase. After 4 hours incubation at room temperature the reactions were stopped and the kinase activity determined using the ADP-Glo™ reagent from Promega, according to the manufacturer’s instructions. Luminescence was measured on a luminometer (EnVision, PerkinElmer) and IC50 values calculated by fitting a sigmoidal curve to percent inhibition of control versus Log10 of compound concentration.

IRE1α RNase = IRE1α RNase (Homo sapiens (Human), UniProt O75460); test: Inhibition of RNase activity of IRE1α; type: biochemical; settings: 0.325 nM enzyme, 100 nM substrate, 20 minutes at room temperature
Sequence of IRE1α RNase (O75460 468-977): as above
Experimental: The RNase reactions were performed in 384 well black ProxiPlate-384 Plus plates (PERKIN Elmer) using 50 mM Tris assay buffer with 0.5 mM MgCl2, 10 mM KCl, 0.03 % Tween, 2 mM DTT and 1% DMSO. Test compounds were prepared on the day of assay and dispensed using D300 digital dispenser as a 10-point ½ log dilution series in duplicate, normalized to a final DMSO concentration of […]. Test compounds were pre-incubated for 30 min at room temperature with IRE1α kinase (E31-11G from Signal Chem) in 2.5 µL of assay buffer. Then 2.5 µl of assay buffer containing substrate (5′ Alexa Fluor 647 - rCrArUrGrUrC rCrGrCrArGrCrGrCrArUrG - Iowa Black RQ quencher 3′) (SEQ ID NO:1) added, giving a final concentration of enzyme of 0.325 nM and of substrate of 100 nM. After 20 minutes incubation at room temperature the reactions were stopped by added 5 µL of 5 M urea, incubated at room temperature for 10 minutes and fluorescence measured on a plate reader (EnVision, PerkinElmer). IC50 values calculated by fitting a sigmoidal curve to percent inhibition of control versus compound concentration.

SMILES | IC50 (XBP1) | IC50 (IRE1α kinase) | IC50 (IRE1α RNase)
[2H]C([2H])([2H])Oc1ccc(F)c(S(=O)(=O)Nc2cc(F)c(-c3nn(C(C)C)c4c3c(N)ncc4[C@H]3CC[C@H](N4CCOCC4)CC3)cc2F)c1 [Compound A18, N-(4-(4-amino-1-isopropyl-7-((1r,4r)-4-morpholinocyclohexyl)-1H-pyrazolo[4,3-c]pyridin-3-yl)-2,5-difluorophenyl)-2-fluoro-5-(methoxy-d3)benzenesulfonamide] | 6.8 nM | 1.9 nM | 6 nM
CC(C)n1nc(-c2cc(F)c(NS(=O)(=O)Cc3ccccc3F)cc2F)c2c(N)ncc([C@H]3CC[C@H](N4CCOCC4)CC3)c21 [Compound A11, N-(4-(4-amino-1-isopropyl-7-((1r,4r)-4-morpholinocyclohexyl)-1H-pyrazolo[4,3-c]pyridin-3-yl)-2,5-difluorophenyl)-1-(2-fluorophenyl)methanesulfonamide] | 11.6 nM | 2.1 nM | 4.8 nM
CCOc1ccc(Cl)c(S(=O)(=O)Nc2cc(F)c(-c3nn(C(C)C)c4c3c(N)ncc4[C@H]3CC[C@H](N4CCOCC4)CC3)cc2F)c1 [Compound A17, N-(4-(4-amino-1-isopropyl-7-((1r,4r)-4-morpholinocyclohexyl)-1H-pyrazolo[4,3-c]pyridin-3-yl)-2,5-difluorophenyl)-2-chloro-5-ethoxybenzenesulfonamide] | 10.6 nM | 2.1 nM | 4.8 nM
Cc1ccc(F)c(S(=O)(=O)Nc2cc(F)c(-c3nn(C(C)C)c4c3c(N)ncc4[C@H]3CC[C@H](N4CCOCC4)CC3)cc2F)c1 [Compound A12, N-(4-(4-amino-1-isopropyl-7-((1r,4r)-4-morpholinocyclohexyl)-1H-pyrazolo[4,3-c]pyridin-3-yl)-2,5-difluorophenyl)-2-fluoro-5-methylbenzenesulfonamide] | 7.7 nM | 2.1 nM | 3.4 nM
CC(C)n1nc(-c2cc(F)c(NS(=O)(=O)c3cc(Cl)ccc3Cl)cc2F)c2c(N)ncc([C@H]3CC[C@H](N4CCOCC4)CC3)c21 [Compound A10, N-(4-(4-amino-1-isopropyl-7-((1r,4r)-4-morpholinocyclohexyl)-1H-pyrazolo[4,3-c]pyridin-3-yl)-2,5-difluorophenyl)-2,5-dichlorobenzenesulfonamide] | 4.6 nM | 1.6 nM | 3.3 nM

— patent publication US20230331719A1, “Pyrazolopyridine Compounds and Methods of Inhibiting IRE1 Using Same” (OPTIKIRA, LLC, priority 2020, published 2023)
